This assay has as its target T1, Ba/F3 cell EGFR Exon20 ins NPH (Homo sapiens, UniProt P00533, INS773NPH).
T1 construct: expressed in transfected cells; host or cells: Ba/F3
Put plainly: Ba/F3 cell proliferation suppression, EGFR Exon20 ins NPH. Conditions: GI50 class; Ba/F3 cell line with NPH inserted at Exon20 of EGFR; 72 hours. The assay is classed as cell-based. The method, boiled down:
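Growth suppression determined as GI50 following 72 h exposure across 12 concentrations up to 50 um, with viability by luminescent ATP assay (CellTiter-Glo).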
For the molecule `C=CC(=O)Nc1cc(Nc2cc(N3OCC[C@@H]3c3cccc(Cl)c3)ncn2)c(OC)cc1N1CCC(N2CCOCC2)CC1` [compound 417, N-(5-((6-((R)-3-(3-chlorophenyl)isoxazolidine-2-yl)pyrimidine-4-yl)amino)-4-methoxy-2-(4-morpholinopiperidine-1-yl)phenyl) acrylamide], the “Ba/F3 (NPH) Activity” value is reported as “A (GI50 < 50 nM)”. As to `C=CC(=O)Nc1cc(Nc2cc(N3OCC[C@@H]3c3cc(F)cc(F)c3)ncn2)c(OC)cc1N1CCC(N2CC[C@@H](CN(C)C)C2)CC1` [compound 626, N-(5-((6-((R)-3-(3,5-difluorophenyl)isoxazolidine-2-yl)pyrimidine-4-yl)amino)-2-(4-((S)-3-((dimethylamino)methyl)pyrolidine-1-yl)piperidine-1-yl)-4-methoxyphenyl) acrylamide], the “Ba/F3 (NPH) Activity” value is “A (GI50 < 50 nM)”. Regarding `C=CC(=O)Nc1cc(Nc2cc(N3OCC[C@@H]3c3cccc(F)c3)ncn2)c(OC)cc1N1CCC(N2C[C@@H]3C[C@H]2CN3C)CC1` [compound 837, N-(5-((6-((R)-3-(3-fluorophenyl)isoxazolidine-2-yl)pyrimidine-4-yl)amino)-4-methoxy-2-(4-((1S, 4S)-5-methyl-2,5-diazabicyclo[2.2.1]heptane-2-yl)piperidine-1-yl)phenyl)acrylamide], the “Ba/F3 (NPH) Activity” value is “A (GI50 < 50 nM)”. For `C=CC(=O)Nc1cc(Nc2cc(N3OCC[C@@H]3c3ccc(F)c(Cl)c3)ncn2)c(OC)cc1N1C[C@H]2C[C@@H]1CO2` [compound 903, N-(2-((1R,4R)-2-oxa-5-azabicyclo [2.2.1]heptane-5-yl)-5-((6-((R)-3-(3-chloro-4-fluorophenyl)isoxazolidine-2-yl)pyrimidine-4-yl)amino)-4-methoxyphenyl) acrylamide] the value was “A (GI50 < 50 nM)”. Under `C=CC(=O)Nc1cc(Nc2cc(N3OCC[C@@H]3c3cccc(F)c3F)ncn2)c(OC)cc1N1CCN(CC)CC1` [compound 297, N-(5-((6-((R)-3-(2,3-difluorophenyl)isoxazolidine-2-yl)pyrimidine-4-yl)amino)-2-(4-ethylpiperazine-1-yl)-4-methoxyphenyl) acrylamide] stands “A (GI50 < 50 nM)”; under `C=CC(=O)Nc1cc(Nc2cc(N3OCC[C@@H]3c3cc(F)ccc3F)ncn2)c(OC)cc1N1CCC(N2CCN(C(C)=O)CC2)CC1` [compound 815, N-(2-(4-(4-acetylpiperazine-1-yl)piperidine-1-yl)-5-((6-((R)-3-(2,5-difluorophenyl)isoxazolidine-2-yl)pyrimidine-4-yl)amino)-4-methoxyphenyl) acrylamide], “A (GI50 < 50 nM)”; under `C=CCN1CCN(C2CCN(c3cc(OC)c(Nc4cc(N5OCC[C@@H]5Cc5cccc(Cl)c5Cl)ncn4)cc3NC(=O)C=C)CC2)CC1` [compound 1024, N-(2-(4-(4-allylpiperazine-1-yl)piperidine-1-yl)-5-((6-((S)-3-(2,3-dichlorobenzyl)isoxazolidine-2-yl)pyrimidine-4-yl)amino)-4-methoxyphenyl) acrylamide], “A (GI50 < 50 nM)”. As to `C=CC(=O)Nc1cc(Nc2cc(N3OCCC3(C)c3ccccc3)ncn2)c(OC)cc1N1CCC(N2CCN(CC)CC2)CC1` (stereo not shown) [Example 261, N-(2-(4-(4-ethylpiperazine-1-yl)piperidine-1-yl)-4-methoxy-5-((6-(3-methyl-3-phenylisoxazolidine-2-yl)pyrimidine-4-yl)amino)phenyl) acrylamide], the “Ba/F3 (NPH) Activity” value is “C (500 nM ≤ GI50 < 5000 nM)”. For `C=CC(=O)Nc1cc(Nc2cc(N3OCC[C@@H]3Cc3cccnc3)ncn2)c(OC)cc1N1CCC(N2CCN(C3CC3)[C@@H](C)C2)CC1` [compound 1057, N-(2-(4-((S)-4-cyclopropyl-3-methylpiperazine-1-yl)piperidine-1-yl)-4-methoxy-5-((6-((S)-3-(pyridine-3-ylmethyl)isoxazolidine-2-yl)pyrimidine-4-yl)amino)phenyl)acrylamide], the “Ba/F3 (NPH) Activity” value is given as “B (50 nM ≤ GI50 < 500 nM)”. For `C=CC(=O)Nc1cc(Nc2cc(N3OCC[C@@H]3c3cccc(Cl)c3Cl)ncn2)c(OC)cc1N1C[C@@H]2C[C@H]1CO2` [compound 522, N-(2-((1S,4S)-2-oxa-5-azabicyclo[2.2.1]heptane-5-yl)-5-((6-((R)-3-(2,3-dichlorophenyl)isoxazolidine-2-yl)pyrimidine-4-yl)amino)-4-methoxyphenyl) acrylamide], the “Ba/F3 (NPH) Activity” value is “B (50 nM ≤ GI50 < 500 nM)”. With `C=CC(=O)Nc1cc(Nc2cc(N3OCC[C@@H]3c3cccc(Cl)c3Cl)ncn2)c(OC)cc1N1CCC(N2CCN(C3CC3)CC2)CC1` [Example 162, N-(2-(4-(4-cyclopropylpiperazine-1-yl)piperidine-1-yl)-5-((6-((R)-3-(2,3-dichlorophenyl)isoxazolidine-2-yl)pyrimidine-4-yl)amino)-4-methoxyphenyl) acrylamide], the “Ba/F3 (NPH) Activity” value is given as “A (GI50 < 50 nM)”. For `C=CC(=O)Nc1cc(Nc2cc(N3OCC[C@H]3Cc3ccccc3)ncn2)c(OC)cc1N(C)CCN(C)C` [compound 973, N-(5-((6-((R)-3-benzylisoxazolidine-2-yl)pyrimidine-4-yl)amino)-2-((2-(dimethylamino)ethyl) (methyl)amino)-4-methoxyphenyl) acrylamide] the value was “B (50 nM ≤ GI50 < 500 nM)”; for `C=CC(=O)Nc1cc(Nc2cc(N3OCC[C@@H]3c3ccc(Cl)c(F)c3)ncn2)c(OC)cc1N1CCC(N2CCC(N(C)C)CC2)CC1` [compound 803, N-(5-((6-((R)-3-(4-chloro-3-fluorophenyl)isoxazolidine-2-yl)pyrimidine-4-yl)amino)-2-(4-(dimethylamino)-[1,4'-bipiperidine]-1'-yl)-4-methoxyphenyl) acrylamide], “A (GI50 < 50 nM)”; for `C=CC(=O)Nc1cc(Nc2cc(N3OCC[C@@H]3c3cccc(C#N)c3)ncn2)c(OC)cc1N1CCC(N2CCOC[C@H]2C)CC1` [compound 388, N-(5-((6-((R)-3-(3-cyanophenyl)isoxazolidine-2-yl)pyrimidine-4-yl)amino)-4-methoxy-2-(4-((R)-3-methylmorpholino)piperidine-1-yl)phenyl) acrylamide], “A (GI50 < 50 nM)”. With `C=CC(=O)Nc1cc(Nc2cc(N3OCC[C@@H]3Cc3cccc(Cl)c3C)ncn2)c(OC)cc1N1CCC(N2CCN(C3CC3)[C@@H](C)C2)CC1` [compound 1028, N-(5-((6-((S)-3-(3-chloro-2-methylbenzyl)isoxazolidine-2-yl)pyrimidine-4-yl)amino)-2-(4-((S)-4-cyclopropyl-3-methylpiperazine-1-yl)piperidine-1-yl)-4-methoxyphenyl) acrylamide], the “Ba/F3 (NPH) Activity” value was “A (GI50 < 50 nM)”.

Take `C=CC(=O)Nc1cc(Nc2cc(N3OCC[C@@H]3Cc3cccc(F)c3Cl)ncn2)c(OC)cc1N1CCC(N2CCN(C3CC3)[C@@H](C)C2)CC1` [compound 1037, N-(5-((6-((S)-3-(2-chloro-3-fluorobenzyl)isoxazolidine-2-yl)pyrimidine-4-yl)amino)-2-(4-((S)-4-cyclopropyl-3-methylpiperazine-1-yl)piperidine-1-yl)-4-methoxyphenyl) acrylamide]: the “Ba/F3 (NPH) Activity” value is listed as “A (GI50 < 50 nM)”.

The values above are taken from patent US12157730B2, “Heteroaryl derivative, method for producing same, and pharmaceutical composition comprising same as effective component” (VORONOI INC., priority 2019, dated 2024).
